# Reference: PMC8429728, “TNK1 is a ubiquitin-binding and 14-3-3-regulated kinase that can be targeted to block tumor growth” (Nature Communications, 2021)
# Read-outs that look alike come from different tables or passages of the source.
# Tests used:
# Assay in all cases: biochemical
# Parameters in all cases: Reaction Biology 371-kinase panel at Km ATP, per cent enzyme activity relative to DMSO, single dose in duplicate
# TIE2/TEK = TIE2/TEK (Homo sapiens, UniProt Q02763); conditions: duplicate measurements, Km ATP
# Description: (§1) To assess kinase selectivity, we screened TP-5801 (300 nM) against a panel of 371 kinases in vitro. […] In addition to TNK1, only 7 other kinases were inhibited by more than 90% (Supplementary Fig. 8 and Supplementary Data 2). […] The resulting % Enzyme activity (relative to DMSO controls) were plotted in GraphPad and IC50 values were determined by sigmoidal dose-response (variable slope) curve fits, with a bottom constraint of 0.
# GRK4 = GRK4 (Homo sapiens, UniProt P32298); conditions: duplicate measurements, Km ATP
# Description: as §1
# GSK3a = GSK3a (Homo sapiens, UniProt P49840); conditions: duplicate measurements, Km ATP
# Description: as §1
# Aurora A = target: T1, Aurora A (Homo sapiens, UniProt O14965); conditions: duplicate measurements, Km ATP
# T1 construct: gene AURKA
# T1 sequence (O14965 1-403): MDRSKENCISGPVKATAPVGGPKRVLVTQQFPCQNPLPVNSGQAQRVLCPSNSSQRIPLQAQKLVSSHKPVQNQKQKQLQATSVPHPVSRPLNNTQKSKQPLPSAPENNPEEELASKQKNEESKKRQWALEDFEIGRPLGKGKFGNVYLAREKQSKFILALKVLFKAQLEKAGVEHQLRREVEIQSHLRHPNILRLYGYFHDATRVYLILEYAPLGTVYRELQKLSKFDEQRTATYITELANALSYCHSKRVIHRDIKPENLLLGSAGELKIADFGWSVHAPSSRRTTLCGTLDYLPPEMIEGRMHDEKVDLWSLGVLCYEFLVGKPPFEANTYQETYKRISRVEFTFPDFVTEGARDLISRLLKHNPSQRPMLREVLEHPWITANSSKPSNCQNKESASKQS
# Description: as §1
# HIPK3 = HIPK3 (Homo sapiens, UniProt Q9H422); conditions: duplicate measurements, Km ATP
# Description: as §1
# SNARK/NUAK2 = SNARK/NUAK2 (Homo sapiens, UniProt Q9H093); conditions: duplicate measurements, Km ATP; read-out: % Enzyme Activity (relative to DMSO controls) / TP-0005801 (0.3µM) / Data 1
# Description: as §1
# MARK4 = MARK4 (Homo sapiens, UniProt Q96L34); conditions: duplicate measurements, Km ATP
# Description: as §1
# MKK7 = target: T2, MKK7 (Homo sapiens, UniProt O14733); conditions: duplicate measurements, Km ATP
# T2 construct: gene MAP2K7
# Description: as §1
# PKCb2 = target: T3, PKCb2 (Homo sapiens, UniProt P05771); conditions: duplicate measurements, Km ATP
# T3 construct: gene PRKCB; isoform beta II
# Description: as §1
# EPHA8 = EPHA8 (Homo sapiens, UniProt P29322); conditions: duplicate measurements, Km ATP
# Description: as §1
# YES/YES1 = YES/YES1 (Homo sapiens, UniProt P07947); conditions: duplicate measurements, Km ATP
# Description: as §1
# PKCd = target: T4, PKCd (Homo sapiens, UniProt Q05655); conditions: duplicate measurements, Km ATP
# T4 construct: gene PRKCD
# Description: as §1
# GSK3b = GSK3b (Homo sapiens, UniProt P49841); conditions: duplicate measurements, Km ATP
# Description: as §1
# JAK2 = JAK2 (Homo sapiens, UniProt O60674); conditions: duplicate measurements, Km ATP
# Description: as §1
# CLK1 = CLK1 (Homo sapiens, UniProt P49759); conditions: duplicate measurements, Km ATP
# Description: as §1
# IRAK4 = IRAK4 (Homo sapiens, UniProt Q9NWZ3); conditions: duplicate measurements, Km ATP
# Description: as §1
# DCAMKL2 = target: T5, DCAMKL2 (Homo sapiens, UniProt Q8N568); conditions: duplicate measurements, Km ATP
# T5 construct: gene DCLK2
# Description: as §1
# [1] = read-out: % Enzyme Activity (relative to DMSO controls) / TP-0005801 (0.3µM) / Data 1
# [2] = read-out: % Enzyme Activity (relative to DMSO controls) / TP-0005801 (0.3µM) / Data 2
# IRAK4, sequence (Q9NWZ3 whole entry): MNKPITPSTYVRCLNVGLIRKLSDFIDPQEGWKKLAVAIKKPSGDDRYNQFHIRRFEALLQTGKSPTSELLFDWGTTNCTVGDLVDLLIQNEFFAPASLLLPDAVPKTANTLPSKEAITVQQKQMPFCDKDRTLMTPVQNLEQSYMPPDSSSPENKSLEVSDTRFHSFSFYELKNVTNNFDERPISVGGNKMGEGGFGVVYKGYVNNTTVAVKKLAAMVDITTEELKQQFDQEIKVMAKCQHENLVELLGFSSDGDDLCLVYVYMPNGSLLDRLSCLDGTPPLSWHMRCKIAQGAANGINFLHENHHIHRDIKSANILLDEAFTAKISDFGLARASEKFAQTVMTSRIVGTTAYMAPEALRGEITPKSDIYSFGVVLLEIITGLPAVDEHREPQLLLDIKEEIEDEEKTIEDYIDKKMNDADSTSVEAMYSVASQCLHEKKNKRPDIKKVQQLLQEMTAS
# HIPK3, sequence (Q9H422 whole entry): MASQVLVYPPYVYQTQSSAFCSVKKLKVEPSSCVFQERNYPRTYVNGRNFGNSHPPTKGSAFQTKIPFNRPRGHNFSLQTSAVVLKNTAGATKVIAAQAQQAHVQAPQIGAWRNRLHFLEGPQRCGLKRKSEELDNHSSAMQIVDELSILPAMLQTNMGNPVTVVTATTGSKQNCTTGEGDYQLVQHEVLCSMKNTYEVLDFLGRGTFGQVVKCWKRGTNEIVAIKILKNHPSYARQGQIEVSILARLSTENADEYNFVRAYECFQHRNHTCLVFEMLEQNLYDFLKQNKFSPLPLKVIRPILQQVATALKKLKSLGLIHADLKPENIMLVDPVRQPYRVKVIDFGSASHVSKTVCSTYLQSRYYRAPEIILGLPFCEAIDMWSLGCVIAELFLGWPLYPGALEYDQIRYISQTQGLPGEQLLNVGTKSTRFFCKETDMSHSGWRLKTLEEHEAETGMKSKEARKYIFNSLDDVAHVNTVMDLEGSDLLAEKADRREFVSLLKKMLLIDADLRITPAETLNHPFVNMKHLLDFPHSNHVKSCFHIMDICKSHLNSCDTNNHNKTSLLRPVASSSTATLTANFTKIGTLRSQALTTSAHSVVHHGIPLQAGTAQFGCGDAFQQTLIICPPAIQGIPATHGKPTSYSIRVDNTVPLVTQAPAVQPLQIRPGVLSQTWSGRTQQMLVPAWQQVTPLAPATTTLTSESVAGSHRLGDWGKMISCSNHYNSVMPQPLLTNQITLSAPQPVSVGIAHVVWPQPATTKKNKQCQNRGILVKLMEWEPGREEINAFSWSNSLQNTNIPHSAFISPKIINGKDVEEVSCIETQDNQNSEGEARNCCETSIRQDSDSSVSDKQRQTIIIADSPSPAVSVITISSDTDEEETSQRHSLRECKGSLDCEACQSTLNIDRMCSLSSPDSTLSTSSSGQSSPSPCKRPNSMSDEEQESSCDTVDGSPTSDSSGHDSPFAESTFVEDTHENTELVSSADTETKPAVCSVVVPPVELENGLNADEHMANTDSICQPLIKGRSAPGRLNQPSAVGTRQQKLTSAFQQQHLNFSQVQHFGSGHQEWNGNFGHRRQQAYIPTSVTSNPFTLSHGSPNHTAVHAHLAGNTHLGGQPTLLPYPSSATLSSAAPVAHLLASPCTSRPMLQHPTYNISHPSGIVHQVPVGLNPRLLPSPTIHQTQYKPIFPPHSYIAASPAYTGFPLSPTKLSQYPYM
# EPHA8, sequence (P29322 whole entry): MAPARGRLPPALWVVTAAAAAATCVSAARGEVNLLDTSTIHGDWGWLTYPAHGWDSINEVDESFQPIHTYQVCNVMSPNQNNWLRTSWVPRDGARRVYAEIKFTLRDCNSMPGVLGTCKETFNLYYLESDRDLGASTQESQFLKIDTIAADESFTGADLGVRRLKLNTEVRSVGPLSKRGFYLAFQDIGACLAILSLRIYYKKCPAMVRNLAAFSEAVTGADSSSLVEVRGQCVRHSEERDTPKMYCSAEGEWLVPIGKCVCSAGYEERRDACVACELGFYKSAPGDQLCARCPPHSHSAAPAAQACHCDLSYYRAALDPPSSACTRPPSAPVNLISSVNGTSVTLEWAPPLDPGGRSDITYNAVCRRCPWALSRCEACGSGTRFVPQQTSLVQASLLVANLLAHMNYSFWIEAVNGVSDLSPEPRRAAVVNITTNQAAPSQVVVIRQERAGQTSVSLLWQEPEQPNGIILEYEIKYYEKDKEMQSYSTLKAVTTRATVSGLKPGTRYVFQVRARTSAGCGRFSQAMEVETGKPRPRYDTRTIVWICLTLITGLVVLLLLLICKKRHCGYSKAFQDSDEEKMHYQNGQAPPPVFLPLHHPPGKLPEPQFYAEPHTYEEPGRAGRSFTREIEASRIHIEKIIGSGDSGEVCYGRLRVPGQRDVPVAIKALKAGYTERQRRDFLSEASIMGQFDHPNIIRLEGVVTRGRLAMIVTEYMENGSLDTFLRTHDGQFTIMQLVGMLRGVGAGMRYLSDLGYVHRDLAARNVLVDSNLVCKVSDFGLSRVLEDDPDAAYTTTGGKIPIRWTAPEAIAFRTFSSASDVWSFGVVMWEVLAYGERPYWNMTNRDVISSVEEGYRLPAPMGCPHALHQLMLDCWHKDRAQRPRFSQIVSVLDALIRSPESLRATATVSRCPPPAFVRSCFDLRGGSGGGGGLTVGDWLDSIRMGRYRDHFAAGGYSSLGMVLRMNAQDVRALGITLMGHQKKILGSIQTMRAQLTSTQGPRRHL
# JAK2, sequence (O60674 whole entry): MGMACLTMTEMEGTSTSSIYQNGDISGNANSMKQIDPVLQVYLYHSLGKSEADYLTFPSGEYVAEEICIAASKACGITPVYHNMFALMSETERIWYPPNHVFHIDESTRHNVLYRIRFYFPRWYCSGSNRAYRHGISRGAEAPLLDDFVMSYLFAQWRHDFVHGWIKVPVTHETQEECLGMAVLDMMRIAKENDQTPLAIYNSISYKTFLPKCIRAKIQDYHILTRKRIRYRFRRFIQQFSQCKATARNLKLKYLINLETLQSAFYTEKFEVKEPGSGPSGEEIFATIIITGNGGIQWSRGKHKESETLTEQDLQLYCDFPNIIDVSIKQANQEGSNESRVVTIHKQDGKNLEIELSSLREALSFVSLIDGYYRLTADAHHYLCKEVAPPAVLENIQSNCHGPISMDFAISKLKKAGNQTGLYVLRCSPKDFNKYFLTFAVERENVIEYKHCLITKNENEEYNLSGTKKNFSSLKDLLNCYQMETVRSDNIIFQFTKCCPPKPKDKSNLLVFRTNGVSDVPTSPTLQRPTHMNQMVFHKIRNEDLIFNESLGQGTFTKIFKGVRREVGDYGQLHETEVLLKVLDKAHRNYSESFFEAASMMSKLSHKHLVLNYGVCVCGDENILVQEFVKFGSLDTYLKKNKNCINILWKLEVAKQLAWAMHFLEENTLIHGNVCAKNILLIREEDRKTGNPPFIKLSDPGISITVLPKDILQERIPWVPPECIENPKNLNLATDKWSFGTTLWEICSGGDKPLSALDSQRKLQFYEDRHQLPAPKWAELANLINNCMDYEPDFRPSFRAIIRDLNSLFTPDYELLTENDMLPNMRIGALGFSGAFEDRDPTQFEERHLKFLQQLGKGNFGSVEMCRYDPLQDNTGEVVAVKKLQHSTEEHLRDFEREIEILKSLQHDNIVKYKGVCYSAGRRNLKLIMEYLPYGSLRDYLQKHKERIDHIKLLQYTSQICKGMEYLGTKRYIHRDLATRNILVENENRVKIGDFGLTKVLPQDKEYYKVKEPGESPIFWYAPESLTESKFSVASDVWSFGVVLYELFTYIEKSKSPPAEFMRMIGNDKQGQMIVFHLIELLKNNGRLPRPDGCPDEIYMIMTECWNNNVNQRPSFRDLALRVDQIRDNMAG
# YES/YES1, sequence (P07947 whole entry): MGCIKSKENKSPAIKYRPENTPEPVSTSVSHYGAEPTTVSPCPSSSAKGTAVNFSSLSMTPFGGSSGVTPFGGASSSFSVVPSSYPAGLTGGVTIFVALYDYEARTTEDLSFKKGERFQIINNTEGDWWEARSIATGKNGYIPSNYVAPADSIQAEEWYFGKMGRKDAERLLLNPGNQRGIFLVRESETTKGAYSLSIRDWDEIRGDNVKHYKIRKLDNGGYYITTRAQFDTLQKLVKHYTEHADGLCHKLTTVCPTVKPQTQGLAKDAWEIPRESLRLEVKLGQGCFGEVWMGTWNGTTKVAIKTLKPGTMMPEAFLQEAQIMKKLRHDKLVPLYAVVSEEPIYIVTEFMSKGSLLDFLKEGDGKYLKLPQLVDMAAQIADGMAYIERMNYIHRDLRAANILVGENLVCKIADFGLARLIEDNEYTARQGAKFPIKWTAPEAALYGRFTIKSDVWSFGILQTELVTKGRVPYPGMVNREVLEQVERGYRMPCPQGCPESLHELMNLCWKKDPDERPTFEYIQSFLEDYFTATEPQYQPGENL
# GRK4, sequence (P32298 whole entry): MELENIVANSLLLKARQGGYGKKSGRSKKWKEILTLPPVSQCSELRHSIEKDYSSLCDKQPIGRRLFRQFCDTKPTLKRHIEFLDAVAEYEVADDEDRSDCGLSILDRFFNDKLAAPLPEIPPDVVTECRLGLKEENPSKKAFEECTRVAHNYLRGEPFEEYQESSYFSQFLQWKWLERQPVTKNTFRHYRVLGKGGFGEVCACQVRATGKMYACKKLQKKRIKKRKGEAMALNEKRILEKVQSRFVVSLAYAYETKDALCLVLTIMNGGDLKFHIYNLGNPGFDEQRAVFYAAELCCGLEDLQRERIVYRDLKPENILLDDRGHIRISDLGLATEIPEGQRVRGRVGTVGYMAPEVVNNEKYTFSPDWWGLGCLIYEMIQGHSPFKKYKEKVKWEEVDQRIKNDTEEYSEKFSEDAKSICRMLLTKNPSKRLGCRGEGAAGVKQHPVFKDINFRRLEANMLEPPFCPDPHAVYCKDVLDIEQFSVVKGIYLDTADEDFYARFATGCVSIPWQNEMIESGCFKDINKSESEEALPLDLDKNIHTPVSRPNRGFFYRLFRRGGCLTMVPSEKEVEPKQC
compound,measurement,setting,value
COc1cc(N2CCN(C)CC2)c(C)cc1Nc1ncc(Br)c(Nc2cccnc2N(C)C)n1 [TP-5801],remaining activity at 0.3 µM,TIE2/TEK; [1],83.6%
same,remaining activity at 0.3 µM,TIE2/TEK; [2],80.7%
same,remaining activity at 0.3 µM,GRK4; [1],109%
same,remaining activity at 0.3 µM,GRK4; [2],108%
same,remaining activity at 0.3 µM,GSK3a; [1],97.1%
same,remaining activity at 0.3 µM,GSK3a; [2],95.8%
same,remaining activity at 0.3 µM,Aurora A; [1],101%
same,remaining activity at 0.3 µM,Aurora A; [2],99.6%
same,remaining activity at 0.3 µM,HIPK3; [1],91.9%
same,remaining activity at 0.3 µM,HIPK3; [2],85.6%
same,remaining activity at 0.3 µM,SNARK/NUAK2,30.2%
same,remaining activity at 0.3 µM,MARK4; [1],89.8%
same,remaining activity at 0.3 µM,MARK4; [2],88.4%
same,remaining activity at 0.3 µM,MKK7; [1],103%
same,remaining activity at 0.3 µM,MKK7; [2],102%
same,remaining activity at 0.3 µM,PKCb2; [1],94.4%
same,remaining activity at 0.3 µM,PKCb2; [2],93.6%
same,remaining activity at 0.3 µM,EPHA8; [1],95.1%
same,remaining activity at 0.3 µM,EPHA8; [2],93.8%
same,remaining activity at 0.3 µM,YES/YES1; [1],87.4%
same,remaining activity at 0.3 µM,YES/YES1; [2],85.4%
same,remaining activity at 0.3 µM,PKCd; [1],113%
same,remaining activity at 0.3 µM,PKCd; [2],99.7%
same,remaining activity at 0.3 µM,GSK3b; [1],96.4%
same,remaining activity at 0.3 µM,GSK3b; [2],95.7%
same,remaining activity at 0.3 µM,JAK2; [1],82.8%
same,remaining activity at 0.3 µM,JAK2; [2],77.7%
same,remaining activity at 0.3 µM,CLK1; [1],11.9%
same,remaining activity at 0.3 µM,CLK1; [2],11.7%
same,remaining activity at 0.3 µM,IRAK4; [1],90.6%
same,remaining activity at 0.3 µM,IRAK4; [2],89.2%
same,remaining activity at 0.3 µM,DCAMKL2; [1],93.7%
same,remaining activity at 0.3 µM,DCAMKL2; [2],89.7%
